Assays:
[1] = Clinical trial, single-dose cross-over: pharmacokinetics of mometasone furoate (Example 6); type: in vivo; details: single dose nasal spray, human subjects
Description: (§1) The clinical trial was a randomized, single-center, single-dose, open-label, three-period, six-sequence, cross-over study to evaluate three treatments administered by nasal spray. […] The study consisted of a screening visit, 3 single-dose treatment periods with washout periods of 7 to 14 days between dosing in each treatment period, an early withdrawal visit if applicable, and a follow-up telephone call (or visit) 1 to 7 days after completing the third treatment period. A total of 30 subjects were randomized to 1 of 6 treatment sequences and received at least 1 dose of study drug. All 30 subjects were included in the safety analysis set and the pharmacokinetic subset. All but 2 subjects completed the study per protocol.

[2] = Clinical trial, single-dose cross-over: pharmacokinetics of olopatadine (Example 5); type: in vivo; details: single dose nasal spray, human subjects
Description: as §1, with “as a” for “by”

| SMILES | Quantifiable concentrations observed until the last time point [1] | Quantifiable concentrations observed until the last time point [2] |
| --- | --- | --- |
| C[C@@H]1C[C@H]2[C@@H]3CCC4=CC(=O)C=C[C@]4(C)[C@@]3(Cl)[C@@H](O)C[C@]2(C)[C@@]1(OC(=O)c1ccco1)C(=O)CCl [mometasone furoate] | 72 h |  |
| CN(C)CC/C=C1/c2ccccc2COc2ccc(CC(=O)O)cc21 [olopatadine] |  | 48 h |
